This is an account of results in patent US11986471B2, “Compounds and methods of use” (Tango Therapeutics, Inc., priority 2018, dated 2024).

For orientation: IC50 means the concentration that gives 50% inhibition.

A value given as a limit tells only on which side of the number the result lay.

The target of assay [1] is T1, PRMT5 (Homo sapiens, UniProt O14744).
T1 construct: purchased Viva (custom protein)
The assay is described as follows: PRMT5 IC50 assay in the presence of MTA as cofactor. In kind it is biochemical. The note with it: for IC50: PRMT5, MTA as cofactor; for SAM/MTA Ratio: ratio between Ki in the presence of SAM and Ki in the presence of MTA. In short, it runs like this:
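Three cofactor conditions tested for PRMT5 inhibition: none, MTA and SAM, each giving an IC50. For conversion to Ki, the MTA-condition IC50 is divided by 13.5 and the SAM-condition IC50 by 1.5, and the two Ki values are expressed as a SAM/MTA ratio.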

The target in assay [2] is T1, PRMT5. Briefly: PRMT5 IC50 assay with no cofactor. The note with it: read-out: No Co-factor IC50. In kind it is biochemical. In short, it runs like this: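 For the SAM-containing format, dividing IC50 by 1.5 yields Ki; for the MTA-containing format the divisor is 13.5. A third format without cofactor gives IC50 alone.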
The test system of a further assay is HAP1 MTAP-deleted. The assay is described as follows: SDMA in-cell western assay, HAP1 MTAP-deleted cell line. In kind it is cell-based. The conditions noted are these: for IC50: Homo sapiens, HAP1 MTAP-deleted cell line; for MTAP Intact/Deleted Ratio: IC50 ratio HAP1 MTAP-intact / HAP1 MTAP-deleted. The source says:
Table 1a also indicates IC50 values in an MTAP-isogenic cell line pair for exemplary compounds in an SDMA in-cell western assay (columns 7-8). HAP1 MTAP-intact is a cell line in which endogenous levels of MTAP are expressed, and HAP1 MTAP-deleted is an MTAP-null cell line.

The subject of a further assay is HAP1 MTAP-intact. The assay is described as follows: SDMA in-cell western assay, HAP1 MTAP-intact cell line. It is filed as cell-based. The conditions noted are these: Homo sapiens. The source says: Table 1a also indicates IC50 values in an MTAP-isogenic cell line pair for exemplary compounds in an SDMA in-cell western assay (columns 7-8). HAP1 MTAP-intact is a cell line in which endogenous levels of MTAP are expressed, and HAP1 MTAP-deleted is an MTAP-null cell line. […] Compounds with a ratio in the SDMA in-cell western assay of equal to or greater than 3 fold are considered MTAP-selective.

Assay [3] addresses T1, PRMT5. Briefly: PRMT5 IC50 assay in the presence of SAM as cofactor. It is filed as biochemical. Summed up:
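Human PRMT5 inhibition, IC50 in μM; cofactor varied (SAM / MTA / none).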

T1 sequence (O14744 whole entry): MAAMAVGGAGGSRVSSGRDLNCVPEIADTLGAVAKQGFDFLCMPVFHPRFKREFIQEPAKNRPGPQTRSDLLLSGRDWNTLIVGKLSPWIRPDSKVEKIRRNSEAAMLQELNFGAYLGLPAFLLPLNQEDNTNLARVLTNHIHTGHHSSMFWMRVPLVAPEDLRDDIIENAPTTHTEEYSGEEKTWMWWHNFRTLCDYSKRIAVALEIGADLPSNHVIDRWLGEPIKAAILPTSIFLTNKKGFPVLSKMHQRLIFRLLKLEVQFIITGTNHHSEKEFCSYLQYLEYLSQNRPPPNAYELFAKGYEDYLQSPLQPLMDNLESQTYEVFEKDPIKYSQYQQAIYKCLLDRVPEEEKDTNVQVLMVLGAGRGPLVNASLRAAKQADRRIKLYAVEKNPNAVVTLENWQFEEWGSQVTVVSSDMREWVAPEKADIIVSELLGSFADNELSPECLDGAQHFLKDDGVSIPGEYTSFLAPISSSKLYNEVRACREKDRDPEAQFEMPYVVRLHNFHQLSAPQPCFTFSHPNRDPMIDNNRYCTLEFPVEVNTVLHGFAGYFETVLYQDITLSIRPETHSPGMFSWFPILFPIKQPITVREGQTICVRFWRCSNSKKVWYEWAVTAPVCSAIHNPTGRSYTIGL
T1 sequence (Q9BQA1 whole entry partner): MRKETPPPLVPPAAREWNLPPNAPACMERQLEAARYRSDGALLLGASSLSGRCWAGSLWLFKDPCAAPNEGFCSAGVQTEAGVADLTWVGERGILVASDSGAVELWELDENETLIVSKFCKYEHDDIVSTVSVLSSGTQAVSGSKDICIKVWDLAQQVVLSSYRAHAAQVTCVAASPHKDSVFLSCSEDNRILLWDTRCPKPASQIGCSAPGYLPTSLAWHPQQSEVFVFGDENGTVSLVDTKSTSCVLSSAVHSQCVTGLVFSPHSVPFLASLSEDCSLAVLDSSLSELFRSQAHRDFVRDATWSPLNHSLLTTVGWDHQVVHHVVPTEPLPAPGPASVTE

`CC(=O)N1CCC(Nc2cc(C(=O)NC[C@H](O)CN3CCc4cc(OCc5cn[nH]c5)ccc4C3)ncn2)CC1` [Compound 201, 6-[(1-acetyl-4-piperidyl)amino]-N-[(2S)-2-hydroxy-3-[6-(1H-pyrazol-4-ylmethoxy)-3,4-dihydro-1H-isoquinolin-2-yl]propyl]pyrimidine-4-carboxamide]: the IC50 at PRMT5 [1] was 50 to 500 nM; at PRMT5 [2] it was 500 to 5000 nM; in the assay on HAP1 MTAP-deleted it was less than 1000 nM; in the assay on HAP1 MTAP-intact it was 1000 to 10000 nM; on PRMT5 [3] it was 50 to 500 nM. Also, the “SAM/MTA Ratio” value on PRMT5 [1] is “A (a Ki ratio greater than or equal to 10 fold between the Ki in the presence of SAM and the Ki in the presence of MTA)”. Moreover, in the assay with HAP1 MTAP-deleted, the “MTAP Intact/Deleted Ratio” value was “C* (an IC50 ratio of less than 3 fold between the IC50 in the HAP1 MTAP-intact cell line and the HAP1 MTAP-deleted cell line)”.
As to `CC(=O)N1CCC(Nc2cc(C(=O)NC[C@H](O)CN3CCc4c(ccc(OCc5ccnn5C)c4C)C3)ncn2)CC1` [Compound 203], the IC50 is 500 to 5000 nM at PRMT5 [1]; no less than 5000 nM at PRMT5 [2]; no less than 10000 nM with HAP1 MTAP-deleted; no less than 10000 nM in the assay with HAP1 MTAP-intact; 500 to 5000 nM at PRMT5 [3]. Further, on PRMT5 [1], the “SAM/MTA Ratio” value was “A (a Ki ratio greater than or equal to 10 fold between the Ki in the presence of SAM and the Ki in the presence of MTA)”. In the assay on HAP1 MTAP-deleted, the “MTAP Intact/Deleted Ratio” value is “C* (an IC50 ratio of less than 3 fold between the IC50 in the HAP1 MTAP-intact cell line and the HAP1 MTAP-deleted cell line)”.
With `O=C(NC[C@H](O)CN1CCc2cc(OCc3c[nH]nn3)ccc2C1)c1ccnc(NC2CCC2)c1` [Compound 207, (S)—N-(3-(6-((1H-1,2,3-triazol-4-yl)methoxy)-3,4-dihydroisoquinolin-2(1H)-yl)-2-hydroxypropyl)-2-(cyclobutylamino)isonicotinamide], the IC50 at PRMT5 [1] was 500 to 5000 nM; on PRMT5 [2], no less than 5000 nM; in the assay on HAP1 MTAP-deleted, less than 1000 nM; with HAP1 MTAP-intact it was less than 1000 nM; on PRMT5 [3] it was 500 to 5000 nM. Moreover, the “SAM/MTA Ratio” value on PRMT5 [1] was “A (a Ki ratio greater than or equal to 10 fold between the Ki in the presence of SAM and the Ki in the presence of MTA)”. Further, in the assay with HAP1 MTAP-deleted, the “MTAP Intact/Deleted Ratio” value is “C* (an IC50 ratio of less than 3 fold between the IC50 in the HAP1 MTAP-intact cell line and the HAP1 MTAP-deleted cell line)”.
For `CC(=O)N1CCC(Nc2cc(C(=O)NC[C@H](O)CN3CCc4cc(OCc5ocnc5C)ccc4C3)ncn2)CC1` [Compound 219, (S)-6-((1-acetylpiperidin-4-yl)amino)-N-(2-hydroxy-3-(6-((4-methyloxazol-5-yl)methoxy)-3,4-dihydroisoquinolin-2(1H)-yl)propyl)pyrimidine-4-carboxamide], the IC50 was 50 to 500 nM on PRMT5 [1]; no less than 5000 nM at PRMT5 [2]; less than 1000 nM with HAP1 MTAP-deleted; 1000 to 10000 nM in the assay with HAP1 MTAP-intact; 50 to 500 nM on PRMT5 [3]. Also, the “SAM/MTA Ratio” value at PRMT5 [1] is “A (a Ki ratio greater than or equal to 10 fold between the Ki in the presence of SAM and the Ki in the presence of MTA)”. Also, the “MTAP Intact/Deleted Ratio” value with HAP1 MTAP-deleted was “B* (an IC50 ratio greater than or equal to 3 fold but lower than 10 fold between the IC50 in the HAP1 MTAP-intact cell line and the HAP1 MTAP-deleted cell line)”.
On to `CC(=O)N1CCC(Nc2cc(C(=O)NC[C@H](O)CN3CCc4cc(OCc5conc5C)ccc4C3)ncn2)CC1` [Compound 233, (S)-6-((1-acetylpiperidin-4-yl)amino)-N-(2-hydroxy-3-(6-((3-methylisoxazol-4-yl)methoxy)-3,4-dihydroisoquinolin-2(1H)-yl)propyl)pyrimidine-4-carboxamide], for which the IC50 was 50 to 500 nM at PRMT5 [1]; no less than 5000 nM at PRMT5 [2]; 1000 to 10000 nM with HAP1 MTAP-deleted; no less than 10000 nM with HAP1 MTAP-intact; 50 to 500 nM on PRMT5 [3]. The “SAM/MTA Ratio” value on PRMT5 [1] was “A (a Ki ratio greater than or equal to 10 fold between the Ki in the presence of SAM and the Ki in the presence of MTA)”. The “MTAP Intact/Deleted Ratio” value in the assay with HAP1 MTAP-deleted is “C* (an IC50 ratio of less than 3 fold between the IC50 in the HAP1 MTAP-intact cell line and the HAP1 MTAP-deleted cell line)”.
Consider `CC(=O)N1CCC(Nc2cc(C(=O)NC[C@H](O)CN3CCc4c(ccc(OCc5cnco5)c4Cl)C3)ncn2)CC1` [Compound 241, (S)-6-((1-acetylpiperidin-4-yl)amino)-N-(3-(5-chloro-6-(oxazol-5-ylmethoxy)-3,4-dihydroisoquinolin-2(1H)-yl)-2-hydroxypropyl)pyrimidine-4-carboxamide], for which the IC50 is 50 to 500 nM on PRMT5 [1]; 500 to 5000 nM on PRMT5 [2]; 1000 to 10000 nM with HAP1 MTAP-deleted; no less than 10000 nM with HAP1 MTAP-intact; 50 to 500 nM at PRMT5 [3]. Further, at PRMT5 [1], the “SAM/MTA Ratio” value is “A (a Ki ratio greater than or equal to 10 fold between the Ki in the presence of SAM and the Ki in the presence of MTA)”. The “MTAP Intact/Deleted Ratio” value in the assay with HAP1 MTAP-deleted was “C* (an IC50 ratio of less than 3 fold between the IC50 in the HAP1 MTAP-intact cell line and the HAP1 MTAP-deleted cell line)”.
For the molecule `CC(=O)N1CCC(Nc2cc(C(=O)NC[C@H](O)CN3CCc4c(ccc(OCc5ccnn5C)c4Cl)C3)ncn2)CC1` [Compound 242, (S)-6-((1-acetylpiperidin-4-yl)amino)-N-(3-(5-chloro-6-((1-methyl-1H-pyrazol-5-yl)methoxy)-3,4-dihydroisoquinolin-2(1H)-yl)-2-hydroxypropyl)pyrimidine-4-carboxamide], the IC50 at PRMT5 [1] is 500 to 5000 nM; on PRMT5 [2], no less than 5000 nM; with HAP1 MTAP-deleted, no less than 10000 nM; with HAP1 MTAP-intact, no less than 10000 nM; on PRMT5 [3] it was 500 to 5000 nM. Also, in the assay on HAP1 MTAP-deleted, the “MTAP Intact/Deleted Ratio” value was “C* (an IC50 ratio of less than 3 fold between the IC50 in the HAP1 MTAP-intact cell line and the HAP1 MTAP-deleted cell line)”.
As for `CC(=O)N1CCC(Nc2cc(C(=O)NC[C@@H](O)CN3CCc4cc(OCc5ocnc5C)ccc4C3)ncn2)CC1` [Compound 249, (R)-6-((1-acetylpiperidin-4-yl)amino)-N-(2-hydroxy-3-(6-((4-methyloxazol-5-yl)methoxy)-3N-dihydroisoquinolin-2(1H)-yl)propyl)pyrimidine-4-carboxamide], the IC50 on PRMT5 [1] is 500 to 5000 nM; on PRMT5 [2] it was no less than 5000 nM; in the assay with HAP1 MTAP-deleted, no less than 10000 nM; in the assay on HAP1 MTAP-intact, no less than 10000 nM; on PRMT5 [3] it was 500 to 5000 nM. Further, the “SAM/MTA Ratio” value at PRMT5 [1] is “A (a Ki ratio greater than or equal to 10 fold between the Ki in the presence of SAM and the Ki in the presence of MTA)”. The “MTAP Intact/Deleted Ratio” value in the assay with HAP1 MTAP-deleted was “C* (an IC50 ratio of less than 3 fold between the IC50 in the HAP1 MTAP-intact cell line and the HAP1 MTAP-deleted cell line)”.
Consider `CC(=O)N1CCC(Nc2cc(C(=O)NC[C@H](O)CN3CCc4cc(OCc5cnnn5C)ccc4C3)ncn2)CC1` [Compound 250, (S)-6-((1-acetylpiperidin-4-yl)amino)-N-(2-hydroxy-3-(6-((1-methyl-1H-1,2,3-triazol-5-yl)methoxy)-3,4-dihydroisoquinolin-2(1H)-yl)propyl)pyrimidine-4-carboxamide], for which the IC50 at PRMT5 [1] was 500 to 5000 nM; on PRMT5 [2], no less than 5000 nM; with HAP1 MTAP-deleted it was no less than 10000 nM; in the assay on HAP1 MTAP-intact, no less than 10000 nM; on PRMT5 [3], 500 to 5000 nM. The “SAM/MTA Ratio” value at PRMT5 [1] is “A (a Ki ratio greater than or equal to 10 fold between the Ki in the presence of SAM and the Ki in the presence of MTA)”. For the same molecule, the “MTAP Intact/Deleted Ratio” value with HAP1 MTAP-deleted was “C* (an IC50 ratio of less than 3 fold between the IC50 in the HAP1 MTAP-intact cell line and the HAP1 MTAP-deleted cell line)”.
As to `CC(=O)N1CCC(Nc2cc(C(=O)NC[C@H](O)CN3CCc4c(ccc(OCc5conc5C)c4Cl)C3)ncn2)CC1` [Compound 251, (S)-6-((1-acetylpiperidin-4-yl)amino)-N-(3-(5-chloro-6-((3-methylisoxazol-4-yl)methoxy)-3N-dihydroisoquinolin-2(1H)-yl)-2-hydroxypropyl)pyrimidine-4-carboxamide], the IC50 on PRMT5 [1] was 500 to 5000 nM; at PRMT5 [2] it was no less than 5000 nM; in the assay with HAP1 MTAP-deleted, no less than 10000 nM; with HAP1 MTAP-intact it was no less than 10000 nM; at PRMT5 [3], 500 to 5000 nM. Also, in the assay with HAP1 MTAP-deleted, the “MTAP Intact/Deleted Ratio” value is “C* (an IC50 ratio of less than 3 fold between the IC50 in the HAP1 MTAP-intact cell line and the HAP1 MTAP-deleted cell line)”.
As to `Cc1ncoc1COc1ccc2c(c1Cl)CCN(C[C@@H](O)CNC(=O)c1ccnc(NC3CCC3)c1)C2` [Compound 252, (S)—N-(3-(5-chloro-6-((4-methyloxazol-5-yl)methoxy)-3,4-dihydroisoquinolin-2(1H)-yl)-2-hydroxypropyl)-2-(cyclobutylamino)isonicotinamide], the IC50 at PRMT5 [1] was 50 to 500 nM; at PRMT5 [2], no less than 5000 nM; in the assay with HAP1 MTAP-deleted, 1000 to 10000 nM; in the assay with HAP1 MTAP-intact, no less than 10000 nM; on PRMT5 [3], 50 to 500 nM. Also, the “SAM/MTA Ratio” value on PRMT5 [1] was “A (a Ki ratio greater than or equal to 10 fold between the Ki in the presence of SAM and the Ki in the presence of MTA)”. Further, the “MTAP Intact/Deleted Ratio” value in the assay with HAP1 MTAP-deleted was “C* (an IC50 ratio of less than 3 fold between the IC50 in the HAP1 MTAP-intact cell line and the HAP1 MTAP-deleted cell line)”.
